Source: patent US20260007613A1, “LONG-ACTING LOW-TOXICITY NOVEL CATIONIC LIPID COMPOUNDS AND COMPOSITION THEREOF” (BEIJING YOUCAREKECHUANG PHARMACEUTICAL TECHNOLOGY CO., LTD., priority 2023, published 2026)

Legend:
female BALB/C mice = assay: Live imaging in mice: protein expression of Fluc-mRNA delivered by LNP formulations; format: in vivo
Protocol: In addition, the protein expression and duration of mRNA in mice delivered by the cationic lipid delivery carriers designed were also verified.
The LNP formulation containing […] Fluc-mRNA was injected intramuscularly into female BALB/C mice aged 4 to 6 weeks old and weighed 17 to 19 g, and the mice were intraperitoneally injected with fluorescent imaging substrate at specific time points after administration (6 h, 24 h, 48 h and 7 d), where the mice were free to move for 5 minutes, and then the average radiation intensity (corresponding to fluorescence expression intensity) of the protein expression of the mRNA carried by the LNP in the mice was detected by the IVIS Spectrum small animal live imaging device.

293T cells [1] = assay: Fluorescent detection of Fluc-mRNA (cell transfection efficiency of LNP formulations); format: cell-based; details: for Relative light unit (RLU): LNP formulation of Fluc-mRNA, 96-well plate, 24 hours; for Multiples (YK-305): RLU of YK-305 / RLU of the lipid of the line; for Multiples (YK-310): RLU of YK-310 / RLU of the lipid of the line; for Multiples (YK-312): RLU of YK-312 / RLU of the lipid of the line; for Multiples (YK-318): RLU of YK-318 / RLU of the lipid of the line; for Multiples (YK-318) / Multiples (YK-319): Tables 5, 7, 11; for Multiples (YK-319): RLU of YK-319 / RLU of the lipid of the line
Protocol: (§1) Cell recovery and passage: 293T cells were recovered, cultured in a culture dish, and passaged to the required number of cells.
(§2) Seeding plate: The cells in the culture dish were digested and counted. Cells were spread in a 96-well plate at 10,000 cells per well and in a 12-well plate at 150,000 cells per well. Cells were cultured overnight until the cells adhered to the wall.
(§3) Cell recovery and passage: the method was the same as in Example 3.
(§4) Seeding plate: the method was the same as in Example 3.
An LNP formulation containing […] of Fluc-mRNA (the carrier components of the LNP formulation were cationic lipid, neutral lipid, structured lipid and polymer-conjugated lipid with a molar ratio of 49:10:39.5:1.5, wherein the cationic lipid was listed in Table 1) was added to the cell culture medium of a 96-well plate, and further incubated for 24 hours. The corresponding reagent was added according to the instructions of the […] Luciferase Assay Kit, and the fluorescence expression intensity of each well was detected by an IVIS fluorescence detection system. This test verified the transfection efficiencies of LNP formulations in cells, see Tables 4-7 for specific test results.

293T cells [2] = assay: Cell survival rate determination (CCK-8); format: cell-based; details: LNP formulation of Fluc-mRNA, 24 hours, CCK-8
Protocol: as §1, §2, §3, §4
An LNP formulation containing […] of Fluc-mRNA (the carrier components of the LNP formulation were cationic lipid, neutral lipid, structured lipid and polymer-conjugated lipid with a molar ratio of 49:10:39.5:1.5, wherein the cationic lipid was listed in Table 1) and the formulation of Lipofectamine 3000 were added to the cell culture medium of a 96-well plate, and further cultivated for 24 hours. 10 μL of CCK-8 solution was then added to each well, and the culture plate was incubated in an incubator for 1 hour. The absorbance at 450 nm was measured by a microplate reader.
Cell survival rate can represent the toxicity of cationic lipids to cells. The higher the cell survival rate, the lower the toxicity to cells.

[3] = Particle size and polydispersity index (PDI) of lipid nanoparticles by dynamic light scattering; format: physicochemical; details: LNP formulation prepared from the cationic lipid, 25° C.
Protocol: The particle size and polydispersity index (PDI) were determined by dynamic light scattering using Malvern laser particle size analyzer.
10 μL of the liposome solution was weighed, diluted to 1 mL with RNase-free deionized water, and added to the sample pool. Each sample was measured in triplicate. The measurement conditions were: […] scattering angle, and 25° C.

[4] = 6 h after intramuscular injection
[5] = 24 h after intramuscular injection
[6] = 48 h after intramuscular injection
[7] = 7 d after intramuscular injection

PDI (%) [3] | Particle size (nm) [3] | SMILES | average radiation intensity (female BALB/C mice; [4]) | average radiation intensity (female BALB/C mice; [5]) | average radiation intensity (female BALB/C mice; [6]) | average radiation intensity (female BALB/C mice; [7]) | Relative light unit (RLU) (293T cells [1]) | Multiples (YK-305) (293T cells [1]) | Multiples (YK-310) (293T cells [1]) | Multiples (YK-312) (293T cells [1]) | Multiples (YK-318) (293T cells [1]) | Multiples (YK-319) (293T cells [1]) | Ratio relative to SM-102 (293T cells [1]; RLU of the lipid / RLU of SM-102, times that of SM-102) | Cell survival rate (%) (293T cells [2]) | Cell survival rate (%) (293T cells [2]; listed as YK 303)
18.1% | 192 nm | CCCCCCCCCCOC(=O)CCCN(CCO)CCCCCC(=O)OCC(CCCCCCCC)CCCCCCCC [YK-009, reference compound] | 1004580 | 754120 | 110140 | 9984 | 5118942 RLU | 5.35 | 5.04 | 3.94 | 2.19 | 4.78 | 3.19 | 72.55% | –
7.0% | 192 nm | CCCCCCCCCCOC(=O)CCCN(CCCCCC(=O)OCC(CCCCCCCC)CCCCCCCC)C[C@H](O)CN(C)CCO [YK-301, (R)-2-octyldecyl-6-((4-(decyloxy)-4-oxobutyl)((2-hydroxy-3-(2-hydroxyethyl)(methyl)amino)propyl)amino)hexanoate] | – | – | – | – | 842452 RLU | 32.53 | 30.62 | 23.92 | 13.28 | 29.04 | – | 52.96% | –
13.4% | 186 nm | CCCCCCCCCCOC(=O)CCCN(CCCCCC(=O)OCCC(CCCCCC)CCCCCC)C[C@H](O)CN(C)CCO [YK-302] | 14580 | 8956 | 4025 | 884 | 27778 RLU | 936.71 | 928.69 | 725.34 | 402.84 | 880.83 | – | 16.43% | –
– | – | CCCCCCCCCCCOC(=O)CCCCCN(CCCC(=O)OCCCC(CCCCCCCCCC)CCCCCCCCCC)C[C@H](O)CN(C)CCO [YK-303, (R)-undecyl-6-(4-(4-decyltetradecyloxy)-4-oxobutyl)((2-hydroxy-3-((2-hydroxyethyl)(methyl)amino)propyl)amino)hexanoate] | – | – | – | – | 626314 RLU | 43.76 | 41.19 | 32.17 | 17.87 | 39.07 | – | 82.18% | 63.32%
19.8% | 149 nm | CCCCCCCCCCCOC(=O)CCCCCN(CCCCCC(=O)OCCCCCCCCCCC)C[C@H](O)CN(C)CCO [YK-304, (R)-bis(undecyl)-6,6′-((2-hydroxy-3-((2-hydroxyethyl)(methyl)amino)propyl)azanediyl)dihexanoate] | – | – | – | – | 20686 RLU | 1324.99 | 1247.08 | 974.01 | 540.95 | 1182.82 | – | 34.16% | –
13.6% | 228 nm | CCCCCCC(CCCCCC)CCOC(=O)CCCCCN(CCCCCC(=O)OCCC(CCCCCC)CCCCCC)C[C@H](O)CN(C)CCO [YK-306, (R)-bis(3-hexylnonyl)-6,6′-((2-hydroxy-3-((2-hydroxyethyl)(methyl)amino)propyl)azanediyl)dihexanoate] | – | – | – | – | 2197174 RLU | 12.47 | 11.14 | 9.17 | 5.09 | 11.14 | – | 42.19% | –
32.2% | 210 nm | CCCCCCCCCCC(CCCCCCCCCC)CCCOC(=O)CCCN(CCCC(=O)OCCCC(CCCCCCCCCC)CCCCCCCCCC)C[C@H](O)CN(C)CCO [YK-307] | – | – | – | – | 4557420 RLU | 6.01 | 5.66 | 4.42 | 2.46 | 5.37 | – | 61.14% | –
